Test results from publication PMC6960228, “Ethoxysanguinarine, a Novel Direct Activator of AMP-Activated Protein Kinase, Induces Autophagy and Exhibits Therapeutic Potential in Breast Cancer Cells” (Frontiers in Pharmacology, 2020).

Key:
[1] = tested on: ACC, Glut1, Glut3, and Glut4 in BC cells; assay: Western blot of energy metabolism proteins; type: cell-based, human
Experimental: Cells were lysed in radioimmunoprecipitation assay buffer containing 50 mM Tris, pH 8.0, 150 mM NaCl, 0.1% SDS, 0.5% sodium deoxycholate, 1% NP-40, 1 mM DTT, 1 mM NaF, 1 mM sodium orthovanadate, 1 mM phenylmethylsulfonyl fluoride (PMSF; Sigma-Aldrich; Merck KGaA), and 1% protease inhibitors cocktail (EMD Millipore, Billerica, MA, USA). Protein concentration was determined using the Bradford method. Equal amounts of sample (25 µg) were separated by SDS-PAGE (8–12% gels). Electrophoresed proteins were then transferred onto polyvinylidene fluoride membranes (EMD Millipore, Billerica, MA, USA). The membranes were blocked with 5% skimmed milk in Tris-buffered saline at room temperature for 1 h. Following blocking, membranes were incubated overnight at 4°C with primary antibodies and then rinsed with Tris-buffered saline with Tween 20. […]

seven BC cell lines = assay: MTT assay, summary over BC cell lines; type: cell-based; details: Homo sapiens, range over BC cell lines
Description: (§1) Human BC cell lines MCF-7, MDA-MB-231, DMA-MB-436, SK-BR3, MDA-MB-468, MDA-MB-453, and MDA-MB-435S and non-tumorigenic MCF-10A human mammary epithelial cells were obtained from American Type Culture Collection (ATCC; Manassas, VA, USA). MCF-7, SK-BR3, MDA-MB-231, and MDA-MB-436 cells were maintained in Dulbecco’s modified Eagle’s medium (DMEM; high glucose; Gibco; Thermo Fisher Scientific, Inc., Waltham, MA, USA) supplemented with 10% fetal bovine serum (FBS; HyClone; Logan, UT, USA) and antibiotics and incubated in a humidified atmosphere with 5% CO2 at 37°C. MDA-MB-468, MDA-MB-453, and MDA-MB-435S cells were maintained in Leibovitz’s L-15 (Gibco) supplemented with 10% FBS and antibiotics and incubated in a humidified atmosphere without CO2 at 37°C. MCF-10A cells were maintained in DMEM/F12 medium containing 5% horse serum (HS), insulin ([…]), epidermal growth factor (EGF, 20 ng/mL), choleratoxin ([…]), hydrocortisone ([…]), penicillin (50 U/mL), and streptomycin (50 U/mL), and incubated in a humidified atmosphere with CO2 at 37°C.
(§2) Cells were seeded into 96-well plate and pre-cultured for 24 h, then treated with Eth for 24. Cell cytotoxicity was determined by MTT assay. […]

MDA-MB-231 = assay: MTT cytotoxicity assay; type: cell-based; details: Homo sapiens, MDA-MB-231, 24 h
Description: as §1
(§3) Cells were seeded into 96-well plate and pre-cultured for 24 h, then treated with Eth for 24. Cell cytotoxicity was determined by MTT assay. The absorbance was measured at 490 nm by automated microplated reader (BioTek Instruments, Inc., Winooski, VT, USA), and the cell death rate was calculated as followed: inhibition rate (%) = (average A490 of the control group − average A490 of the experimental group)/(average A490 of the control group − average A490 of the blank group) × 100%. Cell viability was estimated by trypan blue dye exclusion.

MDA-MB-435S = assay: MTT cytotoxicity assay; type: cell-based; details: Homo sapiens, 24 h, means ± SD of quadruplicate determinations
Description: as §1, §3

MDA-MB-468 = assay: MTT cytotoxicity assay; type: cell-based; details: Homo sapiens, MDA-MB-468, 24 h, means ± SD of quadruplicate determinations
Description: as §1, §3

MCF-7 = assay: MTT cytotoxicity assay; type: cell-based; details: Homo sapiens, MCF7, MCF-7, 24 h
Description: as §1, §3

MDA-MB-436 = assay: MTT cytotoxicity assay; type: cell-based; details: Homo sapiens, MDA-MB-436, 24 h
Description: as §1, §3

SK-BR3 = assay: MTT cytotoxicity assay; type: cell-based; details: Homo sapiens, SK-BR-3, SK-BR3, 24 h, means ± SD of quadruplicate determinations
Description: as §1, §3

MDA-MB-453 = assay: MTT cytotoxicity assay; type: cell-based; details: Homo sapiens, MDA-MB-453, 24 h, means ± SD of quadruplicate determinations
Description: as §1, §3

MCF-10A = assay: MTT cytotoxicity assay; type: cell-based, human
Description: as §1, §2

Question: `CCOC1c2c(ccc3c2OCO3)-c2ccc3cc4c(cc3c2N1C)OCO4` (stereo not drawn) [Eth, Ethoxysanguinarine] was tested. Which “expression and activation of ACC” value [1] did it give?
Answer: no significant effect

Question: And the “expression of Glut1, Glut3, and Glut4” value ([1]; MCF-7 or MDA-MB-231 cells, 24 h)?
Answer: downregulated

Question: What about the IC50 (seven BC cell lines) of the same compound?
Answer: 2.63 to 9.15 µM

Question: And the IC50 (MDA-MB-231)?
Answer: 3.75 ± 0.94 µM

Question: And the IC50 (MDA-MB-435S)?
Answer: 4.58 ± 0.77 µM

Question: And the IC50 (MDA-MB-468)?
Answer: 6.67 ± 1.7 µM

Question: What about the IC50 (MCF-7) of the same compound?
Answer: 3.29 ± 1.5 µM

Question: And the IC50 (MDA-MB-436)?
Answer: 2.63 ± 0.65 µM

Question: And the IC50 (SK-BR3)?
Answer: 2.79 ± 0.39 µM

Question: What about the IC50 (MDA-MB-453) of the same compound?
Answer: 7.06 ± 0.59 µM

Question: And the IC50 (MCF-10A; Homo sapiens, MCF-10A, 24 h, MTT assay, means ± SD of quadruplicate determinations)?
Answer: 12.3 ± 2.05 µM

Question: What about the “sensitivity to Eth compared with the BC cell lines” value (MCF-10A; normal human mammary epithelial cell line MCF-10A) of the same compound?
Answer: less sensitive
